Results: publication PMC6222509, “Dibasic Derivatives of Phenylcarbamic Acid against Mycobacterial Strains: Old Drugs and New Tricks?” (Molecules : A Journal of Synthetic Chemistry and Natural …, 2018)
≈ marks a conversion by molar mass, not a printed value. Like-named read-outs stand apart in the source and are kept apart here.

Experiments:
[1] = test system: M. kansasii DSM 44162 (MK DSM); assay: in vitro antimycobacterial MIC, broth dilution micromethod in Middlebrook 7H9; type: cell-based; conditions: Mycobacterium kansasii, DSM 44162 / DSM 7, 168 h; 7-day cultivation, 37 °C; read-out: MIC MK DSM 7-d
[2] = test system: M. smegmatis ATCC 700084 (MS); assay: as above; type: cell-based, Mycobacterium smegmatis; conditions: Mycolicibacterium smegmatis, ATCC700084, 72 h; 3-day cultivation, 37 °C; read-out: MIC MS 3-d
[3] = test system: M. marinum CAMP 5644 (MM); assay: as above; type: cell-based, Mycobacterium marinum; conditions: Mycobacterium marinum, 504 h; 21-day cultivation, 28 °C; read-out: MIC MM 21-d
[4] = test system: Mycobacterium tuberculosis CNCTC My 331/88 (identical with H37Rv and ATCC 2794; MTv H37Rv); assay: in vitro antimycobacterial MIC, dilution micromethod in Šula's semisynthetic medium; type: cell-based; conditions: Mycobacterium tuberculosis
[5] = test system: M. avium CNCTC My 330/80 (identical with ATCC 25291; MA 330/80); assay: as above; type: cell-based, Mycobacterium avium; conditions: Mycobacterium avium
[6] = test system: M. tuberculosis H37Ra ATCC 25177 (MTa H37Ra); assay: in vitro antimycobacterial MIC, 96-well Middlebrook broth, alamarBlue; type: cell-based, Mycobacterium tuberculosis; conditions: Mycobacterium tuberculosis, 168 h, 7-day cultivation; read-out: MIC MTa H37Ra 7-d
Protocol: In vitro susceptibitity of given mycobacteria to reference drugs isoniazid (INH), ethambutol (EMB), ofloxacin (OFLX) or ciprofloxacin (CPX) was tested as well (Table 6 and Table 7).
A value of a minimum inhibitory concentration (MIC) was the lowest concentration of a tested compound, (i) which inhibited growth of MTv H37Rv, MK 235/80, MK 6509/96 and MA 330/80, respectively; (ii) at which no visible growth of MTa H37Ra, MS, MK DSM as well as MM was observed.
The molecules 1a–p were also in vitro screened against an avirulent M. tuberculosis H37Ra ATCC 25177 (MTa H37Ra), M. kansasii DSM 44162 (MK DSM), M. smegmatis ATCC 700084 (MS) and M. marinum CAMP 5644 (MM), respectively, in the Department of Infectious Diseases and Microbiology (Faculty of Veterinary Medicine, University of Veterinary and Pharmaceutical Sciences in Brno, Czech Republic).
Determination of a minimum inhibitory concentration (MIC) against MTa H37Ra. The mycobacterium was grown on Middlebrook broth (MB; MiddleBrook Pharmaceuticals, Inc., Westlake, TX, USA), supplemented with Oleic-Albumin-Dextrose-Catalase (OADC) supplement (Difco, Lawrence, KS, USA) and salicylate-derived mycobactin J (2 μg/mL; Allied Monitor Inc., Fayette, MO, USA), an iron-binding siderophore.
At log phase growth, a culture sample (10 mL) was centrifuged at 15,000 rpm/20 min using a bench top centrifuge MPW-65R (MPW Med Instruments, Warsaw, Poland). Following removal of the supernatant, a pellet was washed in fresh liquid Middlebrook 7H9GC broth (MiddleBrook Pharmaceuticals, Inc.) and re-suspended in a fresh OADC-supplemented MB (10 mL).
Turbidity was adjusted to match the McFarland standard No. 1 [87] containing approximately 3 × 10^8 Colony Forming Units (CFU) with MB broth. Further 1:20 dilution of the culture was performed in MB broth.
Susceptibility of MTa H37Ra was investigated in a 96-well plate format. In the experiments, sterile deionized water (300 µL) was added to all outer-perimeter wells of the plates to minimize evaporation of the medium in test wells during incubation. Each evaluated compound (100 µL) was incubated with MTa H37Ra (100 µL). Dilutions of each compound were prepared in triplicate and final concentrations varied from 1000 μg/mL to 8 μg/mL. All tested molecules were dissolved in DMSO (Sigma-Aldrich, Irvine, UK), and subsequent dilutions were made in supplemented MB broth. The plates were sealed with parafilm and incubated at 37 °C for 7 days.
Following incubation, 10% addition a water-soluble dye, the alamarBlue reagent (AbD Serotec, Kidlington, UK) was mixed into each well. This resaurin-based reagent served as an oxidation-reduction indicator of metabolic function and cellular health in cell viability bioassays.
Absorbance readings at 570 nm and 600 nm were taken, initially for background subtraction and after 24h re-incubation. The subtraction is necessary for strongly colored compounds, where the color may interfere with the interpretation of any color change. For non-interfering compounds, a blue color in a well was interpreted as absence of growth and pink color was scored as growth.
The minimum inhibitory concentration (MIC) was defined as the lowest concentration of a compound, at which no visible bacterial growth was observed. In other words, the MIC was the lowest concentration that prevented visual color change from blue to pink.

[7] = test system: M. kansasii CNCTC My 235/80 (identical with ATCC 12478; MK 235/80); assay: in vitro antimycobacterial MIC, dilution micromethod in Šula's semisynthetic medium; type: cell-based, Mycobacterium kansasii; conditions: Mycobacterium kansasii
rabbit cornea = test system: rabbit cornea; parameters: method as in PMID 8402965; conditions: 0.01 M cocaine as standard; cited from earlier work
guinea pig = test system: guinea pig; parameters: method as in PMID 8402965; conditions: intradermal, 0.02 M procaine as standard; cited from earlier work
white mice = conditions: subcutaneous application; cited from earlier work
[8] = 336 h, 14-day cultivation, read-out: MIC MTv H37Rv 14-d
[9] = 504 h, 21-day cultivation, read-out: MIC MTv H37Rv 21-d
[10] = ATCC25291, 336 h, 14-day cultivation, read-out: MIC MA 330/80 14-d
[11] = ATCC25291, 504 h, 21-day cultivation, read-out: MIC MA 330/80 21-d
[12] = ATCC12478, 168 h, 7-day cultivation, read-out: MIC MK 235/80 7-d
[13] = ATCC12478, 336 h, 14-day cultivation, read-out: MIC MK 235/80 14-d
[14] = ATCC12478, 504 h, 21-day cultivation, read-out: MIC MK 235/80 21-d

SMILES | MIC [2] [µM] | MIC [3] [µM] | MIC [4, 8] [µM] | MIC [4, 9] [µM] | MIC [5, 10] [µM] | MIC [5, 11] [µM] | MIC [7, 12] [µM] | MIC [7, 13] [µM] | MIC [7, 14] [µM] | Us, index of relative surface local anesthetic efficiency (rabbit cornea) | Ui, index of relative infiltration local anesthetic efficiency (guinea pig) | LD50 (white mice) [mg/kg] | other results
O=C(O)c1cn(C2CC2)c2cc(N3CCNCC3)c(F)cc2c1=O [CPX, ciprofloxacin, reference compound] | 0.4 (≈ 0.133 µg/mL) | 0.8 (≈ 0.265 µg/mL) | – | – | – | – | – | – | – | – | – | – | MIC [1]: 3 µM (≈ 0.994 µg/mL)
CC[C@@H](CO)NCCN[C@@H](CC)CO [EMB, ethambutol, reference compound] | – | – | 1 (≈ 0.204 µg/mL) | 2 (≈ 0.409 µg/mL) | 16 (≈ 3.27 µg/mL) | 16 (≈ 3.27 µg/mL) | – | – | – | – | – | – | MIC ([5]; ATCC25291, cultivation time not given, read-out: MIC MA 330/80): 16 µM (≈ 3.27 µg/mL)
NNC(=O)c1ccncc1 [INH, isoniazid, reference compound] | 117 (≈ 16 µg/mL) | 467 (≈ 64 µg/mL) | 0.5 (≈ 0.0686 µg/mL) | 1 (≈ 0.137 µg/mL) | > 250 | > 250 | > 250 | > 250 | > 250 | – | – | – | MIC [6]: 36.5 µM (≈ 5.01 µg/mL)
CC1COc2c(N3CCN(C)CC3)c(F)cc3c(=O)c(C(=O)O)cn1c23 (stereo not shown) [OFLX, ofloxacin, reference compound] | – | – | 1 (≈ 0.361 µg/mL) | 2 (≈ 0.723 µg/mL) | 32 (≈ 11.6 µg/mL) | 62.5 (≈ 22.6 µg/mL) | 0.5 (≈ 0.181 µg/mL) | 1 (≈ 0.361 µg/mL) | 1 (≈ 0.361 µg/mL) | – | – | – | –
COC(=O)[C@H]1[C@@H](OC(=O)c2ccccc2)C[C@@H]2CC[C@H]1N2C [cocaine] | – | – | – | – | – | – | – | – | – | 1.0 | 3.6 | 125 | –
CCN(CC)CCOC(=O)c1ccc(N)cc1 [procaine] | – | – | – | – | – | – | – | – | – | 0.1 | 1.0 | 600 | –
